Data: patent publication US7943606B2, “Compositions and methods to control abnormal cell growth” (CanCure Laboratories, LLC, priority 2005, dated 2011)

Experiments:
966 SK cells = assay: Viability of 966 SK skin fibroblasts (MTT assay); format: cell-based, human; settings: 50 and 100 μM, 72 hours
Protocol: (§1) To quantify cell death, around the time when significant and characteristic morphological changes took place, cells were pulse-labeled for 10 minutes with [^3H]thymidine to measure DNA activity as described elsewhere [Tomono, M. and Kiss, Z. (1995), “Ethanol enhances the stimulatory effects of insulin and insulin-like growth factor-I on DNA synthesis in NIH 3T3 fibroblasts,” Biochem. Biophys. Res. Commun. 208, 63-67]. Also, cells were collected as suspensions using trypsin, an established method in cell biology, followed by re-plating of cells in fresh tissue culture medium. If no viable cells were obtained after one week in culture, it meant that the cells at the time of re-plating were dead. Survival values obtained with untreated cells were considered 100%. For the determination of relative number of viable cells after treatments, in most cases the MTT assay was used. This calorimetric assay is based on the ability of living cells, but not dead cells, to reduce 3-(4,5-dimethyl thiazol-2-yl)-2,5-diphenyltetrazolium bromide [Carmichael, J, De Graff, W. G., Gazdar, A. F., Minna, J. D. and Mitchell, J. B. (1987), “Evaluation of tetrazolium-based semi-automated calorimetric assay: Assessment of chemosensitivity testing,” Cancer Res. 47, 936-942]. For this assay, cells were plated in 96-well plates, and the MTT assay was performed both in untreated and treated cell cultures. […]

choline transport = assay: [14C]choline uptake and metabolism in AN3CA, MCF-7 and MEL-28 cancer cells; format: cell-based, human; settings: 100 μM CCDTHT or 0.5 mM HC-3, 2 hours, each cell line
Protocol: MEL-28 and MCF-7 cells were cultured in MEM medium supplemented with 10% fetal bovine serum (FBS) and in DMEM medium supplemented with 10% FBS, respectively. The AN3CA human endometrial adenocarcinoma cells were maintained in Eagle's MEM containing 10% FBS. Cancer cells were grown up to confluency in 12-well plates in 10% fetal-bovine serum-containing medium, then incubated in the presence of 1 μCi of [methyl-^14C]choline (bought from Amersham; Piscataway, N.J.) for 2 hours. Cells were first rapidly (within 30 seconds) washed three times with 4 ml of serum-free medium, then extracted with ice-cold methanol. This was followed by the determination of cellular free radiolabeled choline and phosphocholine (PCho) by column chromatography as described earlier [Kiss, Z. and Crilly, K. S. (1995), “Tamoxifen inhibits uptake and metabolism of ethanolamine and choline in multidrug-resistant, but not in drug-sensitive, MCF-7 human breast carcinoma cells,” FEBS Lett. 360, 165-168], and the separation and determination of radiolabeled phosphatidylcholine (PtdCho) by thin layer chromatography as indicated in Kiss [Kiss, Z. (1996), “Direct proof that phorbol ester accelerates the use of choline phosphate for phosphatidylcholine synthesis in intact cells,” Arch. Biochem. Biophys. 335, 191-196].
MCF-7 and MEL-28 cells were cultured as described earlier. The AN3CA human endometrial adenocarcinoma cells were maintained in Eagle's MEM containing 10% FBS. Each cell type was grown in 12-well plates to confluency and then incubated with 1 μCi of [methyl-^14C]choline for 2 hours in the absence (□) or presence of 100 μM CCDTHT ? or 0.5 mM HC-3 (▪), followed by the determination of cellular contents of radiolabeled choline (A), PCho (B) and PtdCho (C), as indicated in FIG. 9. […] Thus, if both CCDTHT and HC-3 influenced cell viability solely via inhibition of choline metabolism, then these agents should similarly affect cell viability, at least at the concentrations used in the choline transport experiment.

CCF-STTG1 cells = assay: Viability of CCF-STTG1 astrocytoma cells (MTT assay); format: cell-based, human; settings: 100-200 μM, 72 hours
Protocol: as §1

U-87 cells = assay: Viability of U-87 malignant glioma cells (MTT assay); format: cell-based, human; settings: 100-200 μM, 72 hours
Protocol: as §1

CaCO-2 cells = assay: Viability of CaCO-2 colon adenocarcinoma cells (MTT assay); format: cell-based; settings: Homo sapiens, Caco-2, 240 h, 10 days, read-out: reduction in the number of viable cells, CaCO-2
Protocol: as §1

## CC[N+](C)(CC)CCOCc1ccc2sc3ccccc3c(=O)c2c1.[I-] [CCDTHT, N,N-diethyl-N-methyl-2-[(9-oxo-9H-thioxanthen-2-yl)methoxy]-ethanaminium iodide]
966 SK cells
  sensitivity compared with HaCaT cells, 966 SK fibroblasts: significantly less sensitive
Choline transport
  inhibitory effects on choline uptake and metabolism (choline, PCho, PtdCho): comparably strong inhibitory effects
CCF-STTG1 cells
  number of viable CCF-STTG1 cells: sharply decrease
U-87 cells
  number of viable U-87 cells: sharply decrease
CaCO-2 cells
  cytotoxicity at 100 µM: ≤ 50%
